In patent US7521580B1, “Non-cytotoxic synthetic analogues of (1E, 6E)-1, 7-Bis (4-hydroxy-3-methoxyphenyl)-1, 6-heptadiene-3, 5-Dione and therapeutic applications thereof in cystic fibrosis” (Sami Labs Ltd., priority 2008, dated 2009):

What was measured:
[1] = MTT assay of cellular cytotoxicity; type: cell-based; conditions: Chinese hamster, CHO-CFTR-wt cells, read-out: TC50; for CC50 at 2 h: 2 h incubation; for CC50 at 24 h: 24 h incubation
Method: The cytotoxicity of (1E,6E)-1,7-Bis(3,5-di-tert-butyl-4-hydroxyphenyl)-1,6-heptadiene-3,5-dione (representative of the molecules disclosed in the present invention) was assessed by MTT assay [[3-(4,5-dimethylthiazol-2-yl)-2,5-diphenyl tetrazolium bromide, measuring cellular dehydrogenase activity on CHO-CFTR-wt cell lines. The test is based on the principle that water soluble tetrazolium yellow salt MTT (Sigma®) is converted on purple formazan by mitochondrial dehydrogenase. Cells were grown to confluency in 96-well plates. After incubation with the test compound for 2 or 24 hours, at 37° C., […] of MTT (5 mg/ml) was added. After 4 h of incubation, culture medium was removed and 100 μl of DMSO per well added to solubilise formazan crystals. Optical density (OD) was measured at 570 nm and subtracted to these measured at 630 nm. The amount of purple formazan produced by treated cells is compared with these of untreated control cells (vehicle), dose-response curves were derived using GraphPad Software.

[2] = biological target: T1, F508del-CFTR chloride channel (Homo sapiens, UniProt P13569, DEL508-508); test: Radiolabelled iodide efflux, F508del-CFTR chloride channel activity in JME/CF15 cells; type: cell-based; conditions: 100 μM for 2 hours, stimulated with forskolin 10 μM plus genistein 30 μM
T1 construct: endogenous in cells; host or cells: JME/CF15 human nasal airway epithelial cells
T1 sequence (P13569 with tags, fused parts or gaps DEL508-508): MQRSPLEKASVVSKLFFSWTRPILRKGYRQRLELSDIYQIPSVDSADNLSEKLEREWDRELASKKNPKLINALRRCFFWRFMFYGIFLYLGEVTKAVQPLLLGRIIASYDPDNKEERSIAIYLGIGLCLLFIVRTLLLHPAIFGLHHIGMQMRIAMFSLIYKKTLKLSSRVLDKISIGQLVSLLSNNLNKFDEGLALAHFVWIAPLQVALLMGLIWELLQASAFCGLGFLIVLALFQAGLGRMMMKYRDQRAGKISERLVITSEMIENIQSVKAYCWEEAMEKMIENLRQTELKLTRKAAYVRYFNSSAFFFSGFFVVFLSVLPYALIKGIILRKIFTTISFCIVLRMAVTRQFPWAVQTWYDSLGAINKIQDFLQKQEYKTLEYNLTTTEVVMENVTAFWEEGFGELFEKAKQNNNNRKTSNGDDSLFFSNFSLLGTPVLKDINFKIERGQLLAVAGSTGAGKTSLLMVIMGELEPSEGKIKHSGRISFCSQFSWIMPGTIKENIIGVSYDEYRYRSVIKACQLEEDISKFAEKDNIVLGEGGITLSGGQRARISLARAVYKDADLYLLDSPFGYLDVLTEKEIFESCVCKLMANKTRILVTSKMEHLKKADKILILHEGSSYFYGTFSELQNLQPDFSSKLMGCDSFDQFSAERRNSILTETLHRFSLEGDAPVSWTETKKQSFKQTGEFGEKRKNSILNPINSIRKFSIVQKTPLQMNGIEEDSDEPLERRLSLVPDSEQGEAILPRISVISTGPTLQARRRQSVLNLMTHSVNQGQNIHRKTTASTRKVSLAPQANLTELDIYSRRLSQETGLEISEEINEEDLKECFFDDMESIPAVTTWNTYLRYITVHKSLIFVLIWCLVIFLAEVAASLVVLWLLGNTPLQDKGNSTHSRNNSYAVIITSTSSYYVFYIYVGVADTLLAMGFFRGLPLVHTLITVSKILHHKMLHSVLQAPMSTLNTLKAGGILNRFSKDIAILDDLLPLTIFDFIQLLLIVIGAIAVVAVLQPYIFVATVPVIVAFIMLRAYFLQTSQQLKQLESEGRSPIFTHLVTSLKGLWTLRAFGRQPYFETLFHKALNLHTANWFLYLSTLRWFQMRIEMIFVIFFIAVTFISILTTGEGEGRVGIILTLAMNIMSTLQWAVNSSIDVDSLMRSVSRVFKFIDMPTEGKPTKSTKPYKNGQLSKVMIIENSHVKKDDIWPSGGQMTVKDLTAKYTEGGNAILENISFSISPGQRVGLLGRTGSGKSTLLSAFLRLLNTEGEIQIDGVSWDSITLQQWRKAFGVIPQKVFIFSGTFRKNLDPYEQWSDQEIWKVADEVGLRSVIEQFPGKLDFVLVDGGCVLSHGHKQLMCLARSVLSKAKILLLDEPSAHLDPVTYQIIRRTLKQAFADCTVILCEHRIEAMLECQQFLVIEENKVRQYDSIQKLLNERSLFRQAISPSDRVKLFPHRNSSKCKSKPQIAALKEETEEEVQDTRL
Method: (§1) The human nasal airway epithelial cells JME/CF15 were cultured in 24-well plates to 90% confluence. (1E,6E)-1,7-Bis(3,5-di-tert-butyl-4-hydroxyphenyl)-1,6-heptadiene-3,5-dione was added at 100 μM for 2 hours, at 37° C., 5% CO2. After incubation, chloride channel activity was assayed by measuring the rate of radio labelled iodide (125 l) efflux using liquid handling robots. The compound was tested in quadruplicate. Cells were incubated in physiologic solution containing 1 μM Kl and 1 μCi Na 125 l/ml during 1 h at 37° C. Extra cellular 125 l was removed by 3 washes of cells, and the loss of intracellular 125 l is determined by removing the medium with physiological solution every minute for up to 9 min 6. A cocktail of forskolin (10 μM) plus genistein (30 μM) was added at the third minute to stimulate F508del-CFTR chloride channel activity. Statistics and curves were derived at using Graph Pad Software.

wt-CFTR channel = biological target: T2, wt-CFTR channel (Homo sapiens, UniProt P13569); test: Iodide efflux, wild type CFTR chloride channel activity in CHO-CFTR-wt cells; type: cell-based; conditions: 100 μM acute (no incubation) in presence of Forskolin 1 μM
T2 construct: expressed in transfected cells; host or cells: CHO-CFTR-wt cells
T2 sequence (P13569 whole entry): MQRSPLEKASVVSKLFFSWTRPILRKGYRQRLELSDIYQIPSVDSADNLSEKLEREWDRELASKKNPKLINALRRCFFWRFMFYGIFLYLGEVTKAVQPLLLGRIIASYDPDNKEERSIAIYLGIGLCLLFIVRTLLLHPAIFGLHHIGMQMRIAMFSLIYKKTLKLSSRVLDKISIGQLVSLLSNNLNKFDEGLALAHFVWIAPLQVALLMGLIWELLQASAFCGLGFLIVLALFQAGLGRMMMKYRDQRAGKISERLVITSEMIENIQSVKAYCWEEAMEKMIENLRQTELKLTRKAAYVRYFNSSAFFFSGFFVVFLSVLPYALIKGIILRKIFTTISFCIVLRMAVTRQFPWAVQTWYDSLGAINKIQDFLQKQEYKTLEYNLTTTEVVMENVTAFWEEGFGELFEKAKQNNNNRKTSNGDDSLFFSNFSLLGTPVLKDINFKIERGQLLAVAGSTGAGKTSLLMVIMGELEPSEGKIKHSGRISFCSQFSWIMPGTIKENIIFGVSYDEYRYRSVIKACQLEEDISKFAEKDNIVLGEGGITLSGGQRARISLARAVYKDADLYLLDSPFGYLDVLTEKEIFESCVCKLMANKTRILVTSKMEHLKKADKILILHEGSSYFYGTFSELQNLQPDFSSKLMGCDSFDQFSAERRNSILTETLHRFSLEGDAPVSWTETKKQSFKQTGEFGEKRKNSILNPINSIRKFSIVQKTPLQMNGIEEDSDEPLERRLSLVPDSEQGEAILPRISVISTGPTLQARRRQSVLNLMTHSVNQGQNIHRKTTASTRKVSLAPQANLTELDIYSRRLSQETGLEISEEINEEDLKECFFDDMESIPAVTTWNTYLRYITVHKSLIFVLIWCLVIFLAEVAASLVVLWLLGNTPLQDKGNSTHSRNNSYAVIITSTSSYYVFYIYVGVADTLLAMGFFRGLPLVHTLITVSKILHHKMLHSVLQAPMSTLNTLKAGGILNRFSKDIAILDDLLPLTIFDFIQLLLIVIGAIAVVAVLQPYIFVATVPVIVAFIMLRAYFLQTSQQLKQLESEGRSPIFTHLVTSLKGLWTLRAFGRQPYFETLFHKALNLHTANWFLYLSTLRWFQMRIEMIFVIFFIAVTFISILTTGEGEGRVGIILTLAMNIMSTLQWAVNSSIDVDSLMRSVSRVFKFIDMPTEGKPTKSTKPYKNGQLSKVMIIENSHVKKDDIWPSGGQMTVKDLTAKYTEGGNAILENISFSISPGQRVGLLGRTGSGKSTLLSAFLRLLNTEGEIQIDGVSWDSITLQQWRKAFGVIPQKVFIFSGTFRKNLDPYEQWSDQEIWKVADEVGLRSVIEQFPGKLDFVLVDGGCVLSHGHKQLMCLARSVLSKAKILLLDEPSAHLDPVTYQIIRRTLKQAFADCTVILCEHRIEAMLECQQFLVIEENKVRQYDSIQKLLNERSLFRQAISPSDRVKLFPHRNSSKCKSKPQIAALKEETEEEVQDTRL
Method: as §1
To test the potency to stimulate wt-CFTR channel activity, CHO-CFTR-wt cells were cultured in 24-well plates to 90% confluence. Iodide efflux experiments were carried as described above. (1E,6E)-1,7-Bis(3,5-di-tert-butyl-4-hydroxyphenyl)-1,6-heptadiene-3,5-dione was added in the third minute in the presence or absence of Forskolin (1 μM). The compound was tested in acute (no incubation) at 100 μM in presence of Forskolin 1 μM. […]

JME/CF15 cells = test: Intracellular calcium mobilization (Fluo-4, confocal microscopy) in JME/CF15 cells; type: cell-based, human; conditions: 100 μM during 2 h, absence of extra cellular calcium
From the text: A number of epithelial chloride channels are calcium dependent. Therefore molecules which increase cytosolic calcium release or reduce calcium re-uptake by the intracellular stores may be beneficial to increase chloride secretion via a calcium-regulated chloride signaling pathway. Alternatively, a decrease in the activity calcium dependant proteins playing a vital role in retaining misfolded F508-CFTR in the ER may also seem a promising strategy in cystic fibrosis therapy.
JME/CF15 cells were loaded with 3 μM Fluo-4 acetoxymethyl (AM)ester for 20 min at room temperature in buffer solution containing: (in mM) 130 NaCl, 5.4 KCl, 2.5 CaCl2, 0.8 MgCl2, 5.6 glucose, 10 Hepes, pH 7.4 adjusted with Tris base), rinsed and allowed to equilibrate for 5-10 min. Ca2+ activity was recorded by confocal laser scanning microscopy using Bio-Rad MRC 1024 equipped with 15 mW Ar/Kr gas laser (Hemel Hempstead, UK). Maximal resolution was obtained with Olympus plan apo X60 oil, 1.4 NA, objective lens. Fluorescence signal collection was performed through the control software Lasersharp 3.2 (Bio-Rad). The resolution time was 30 s for the protocol in which cells are incubated 2 h in the presence of (1E,6E)-1,7-Bis(3,5-di-tert-butyl-4-hydroxyphenyl)-1,6-heptadiene-3,5-dione. All the experiments were performed at minimum on two different cell passages. […]

`COc1cc(/C=C/C(=O)CC(=O)/C=C/c2ccc(O)c(OC)c2)ccc1O` [Curcumin, (1E,6E)-1,7-Bis(4-hydroxy-3-methoxyphenyl)-1,6-heptadiene-3,5-dione, reference compound] gave a CC50 at 2 h [1] of 50.1 ± 1.1 µM and a CC50 at 24 h [1] of 42.7 ± 1 µM.
For `CC(C)(C)c1cc(/C=C/C(=O)CC(=O)/C=C/c2cc(C(C)(C)C)c(O)c(C(C)(C)C)c2)cc(C(C)(C)C)c1O` [(1E,6E)-1,7-Bis(3,5-di-tert-butyl-4-hydroxyphenyl)-1,6-heptadiene-3,5-dione], the CC50 at 2 h [1] was over 100 µM, the CC50 at 24 h [1] was over 100 µM and the “restoration of F508del-CFTR protein at the plasma membrane (iodide efflux)” value [2] was “able to restore the F508del-CFTR protein at the plasma membrane of CF cells”. For the same compound, the “wild-type CFTR chloride channel activity” value (wt-CFTR channel) was “insignificant wild-type CFTR chloride channel activity”, the “intracellular mobilization of Ca2+” value (JME/CF15 cells) was “induced intracellular mobilization of Ca^2+” and the melting point was 192 to 196 °C.
